In patent publication US10849863B2, “Compounds for treating cancer, for administering, and for pharmaceutical compositions” (UNIVERSITY OF LOUISVILLE RESEARCH FOUNDATION, INC., priority 2011, dated 2020):

Key:
[1] = system: A375 cells; assay: AlamarBlue viability assay, A375 cells; assay type: cell-based, human; settings: 32 h (FIG. 8B)
Procedure: (§1) The test compositions in Table 1 were tested first for their ability to induce cytotoxicity in dose response curves using an AlamarBlue assay using two cancer cell lines.
(§2) The method used for the viability assay follows. Cells were seeded in 96-well plates for measuring cell growth during treatment by the tested compound using the AlamarBlue fluorescence assay (Biosource International, Inc., Camarillo, Calif.). AlamarBlue (resazurin) is a soluble, non-toxic dye used to monitor the functional electron transport chain of a viable cell by reduction of the dye from its oxidized, non-fluorescent (blue) state to the reduced, fluorescent (pink) state (resorufin). AlamarBlue was added six hours prior to the desired time point in an amount equal to 10% (v/v) of the culture volume, and the plates were returned to the incubator. At the end of the six hour incubation, the amount of AlamarBlue reduction was measured using a fluorometric plate reader ([…]). The plate reader was blanked by reading the fluorescence of cell free medium supplemented with AlamarBlue (States et al., Toxicol. Appl. Pharmacol., Vol. 180, pages 83-91 (2002)). Data are reported as a percentage of the untreated control. Three independent experiments were analyzed and results are shown as average±standard deviation.

[2] = system: HeLa cells; assay: AlamarBlue viability assay, HeLa cells; assay type: cell-based, human; settings: for effectiveness at reducing viability (Alamar Blue), rank among T-8, T-13, T-14: 32 h (FIG. 8A)
Procedure: as §1, §2

[3] = system: A375 cells; assay: Mitotic index and mitotic catastrophe index determination (mitotic spread assay), A375 cells; assay type: cell-based, human; settings: selected concentrations (1-10 μM), eighteen hours, among T-1 to T-9 (FIG. 3)
Procedure: Cells were harvested for mitotic index analysis by trypsinization. Media, wash, and trypsinized cells were collected together and centrifuged to pellet all the cells. Cells were resuspended in 150 mL serum free media and 2.5 mL 0.4% KCl was added. The suspension was incubated for 10 minutes at 37° C. Methanol:acetic acid fixative solution (3:1, v/v) was then added to 2% (v/v) and cells were collected by centrifugation. Cells were resuspended in 2.5 mL fixative solution and fixed at room temperature for 20 minutes. Samples were centrifuged; pellets were resuspended in 0.5 mL fixative and chilled on ice for one hour. […] Slides were examined under a microscope and at least 200 cells were counted on each slide for determination of mitotic index and mitotic catastrophe index. Only cells with distinct interphase nuclei appearance (panel Q from FIG. 2), metaphase spread appearance (panel S from FIG. 2), or mitotic catastrophe appearance (panel T from FIG. 2) were counted. Mitotic index and mitotic catastrophe index were determined using the following formula: Mitotic index=(cells with mitotic spread appearance as exemplified in panel S of FIG. 2)/(total number of counted cells) Mitotic catastrophe index=(cells with mitotic catastrophe appearance as exemplified in panel T of FIG. 2)/(total number of counted cells)
Three independent experiments were analyzed. […]

[4] = system: HeLa cells; assay: Mitotic index and mitotic catastrophe index determination (mitotic spread assay), HeLa cells; assay type: cell-based, human; settings: for percent of nuclei present as clean mitotic spreads (mitotic index) / percentage of nuclei presenting as mitotic catastrophe: 60 μM T-8 or 10 μM T-3, 24 h, vs DMSO control, p<0.05 (FIG. 4)
Procedure: Cells were harvested for mitotic index analysis by trypsinization. Media, wash, and trypsinized cells were collected together and centrifuged to pellet all the cells. Cells were resuspended in 150 mL serum free media and 2.5 mL 0.4% KCl was added. The suspension was incubated for 10 minutes at 37° C. Methanol:acetic acid fixative solution (3:1, v/v) was then added to 2% (v/v) and cells were collected by centrifugation. Cells were resuspended in 2.5 mL fixative solution and fixed at room temperature for 20 minutes. Samples were centrifuged; pellets were resuspended in 0.5 mL fixative and chilled on ice for one hour. Aliquots of the suspensions were dropped onto slides (two slides per sample), air dried, and stained with Wright Giemsa solution (States et al., Toxicol. Appl. Pharmacol., Vol. 180, pages 83-91 (2002); Taylor et al., J. Pharmacol. Exp. Ther., Vol. 318, pages 142-151 (2006)). Slides were examined under a microscope and at least 200 cells were counted on each slide for determination of mitotic index and mitotic catastrophe index. Only cells with distinct interphase nuclei appearance (panel Q from FIG. 2), metaphase spread appearance (panel S from FIG. 2), or mitotic catastrophe appearance (panel T from FIG. 2) were counted. Mitotic index and mitotic catastrophe index were determined using the following formula: Mitotic index=(cells with mitotic spread appearance as exemplified in panel S of FIG. 2)/(total number of counted cells) Mitotic catastrophe index=(cells with mitotic catastrophe appearance as exemplified in panel T of FIG. 2)/(total number of counted cells)
Three independent experiments were analyzed. DAPI stain in mounting media (Molecular Probes) added directly to the slides was used to identify DNA in interphase nuclei, mitotic spreads, mitotic catastrophe, and nuclear fragmentation by fluorescence microscopy.
Test compositions T-1 to T-9 in Table 1 were tested for their ability to induce mitotic arrest using a mitotic spread assay because it can also be used to score for mitotic catastrophe (Taylor et al., J. Pharmacol. Exp. Ther., Vol. 318, Pages 142-151 (2006); Taylor et al., Toxicol. Appl. Pharmacol., Vol. 230, Pages 235-246 (2008)). […] In these tests, a single concentration of each test composition was tested based on cytotoxicity results of FIG. 1 and on results of observational studies to determine the dose and time course of morphological changes induced (data not shown). The concentrations chosen were the minimum concentrations required to induce <10% survival and morphological changes at 16-24 hours.

[5] = system: HeLa cells; assay: Visual assessment of cytotoxicity, HeLa cells; assay type: cell-based, human; settings: for rounded up cells in mitosis (visual assessment): HeLa cells (paclitaxel sensitive), 24-well plate (FIG. 5A)
Text: (§3) The cytotoxicity of the compounds were initially assessed visually and by photomicroscopy. Visual inspection of dose response experiments over a protracted time course provides valuable information on the responses of cells to the treatments. Phase contrast microscopy allows one to assess whether cells are undergoing mitotic arrest and/or apoptosis by their altered morphology. Mitotic cells rounded up with smooth membranes and often condensed chromosomes aligned at a metaphase plate were clearly visible. […] Cells were plated in 24-well plates and allowed to attach and stabilize overnight. Cells were then treated with compounds in dose response and photomicrographs were taken at various time points over 2 days. Photographs were assembled in composite figures showing dose response at a given time point.

[6] = system: SK-MEL-28 cells; assay: Visual assessment of cytotoxicity, SK-MEL-28 cells; assay type: cell-based, human; settings: for rounded up cells in mitosis (visual assessment): SK-MEL-28 cells (paclitaxel resistant), 24-well plate (FIG. 5B)
Text: as §3

[7] = system: HeLa cells; assay: Clonogenic viability assay, HeLa cells; assay type: cell-based, human; settings: for colony formation (clonogenic cytotoxicity): Hela cells (paclitaxel sensitive), colonies counted after 10 days (FIG. 6A)
Procedure: (§4) Clonogenic assays are used to determine the impact of a test compositions on the ability of cells to replicate. Cells are plated at cloning densities (100 and 500 cells per well in a 6-well plate; 3 wells of each cell number), and allowed to attach and stabilize overnight. Cells are then treated in dose-response experiments with test composition(s) (one concentration of test composition per plate) and incubated for 7-10 days to allow colonies of >30 cells to form. Colonies are stained with crystal violet and counted. Colony forming ability is then calculated as a percent of control by setting the mean number of colonies per well of cells treated with vehicle (0.1% DMSO) equal to 100 percent.

[8] = system: SK-MEL-28 cells; assay: Clonogenic viability assay, SK-MEL-28 cells; assay type: cell-based, human; settings: SK-MEL-28 cells (paclitaxel resistant); colonies counted after 10 days (FIG. 6B)
Procedure: as §4

[9] = system: SK-MEL-28 cells; assay: AlamarBlue viability assay, SK-MEL-28 cells; assay type: cell-based, human; settings: 32 h (FIG. 10)
Procedure: as §2

[10] = system: GM0637 cells; assay: AlamarBlue viability assay, GM0637 cells; assay type: cell-based, human; settings: 32 h (FIG. 10)
Procedure: as §2

[11] = system: tGM24 cells; assay: AlamarBlue viability assay, tGM24 cells; assay type: cell-based, human; settings: 32 h (FIG. 10)
Procedure: as §2

[12] = system: GM0637 cells; assay: Visual assessment of cytotoxicity, GM0637 cells; assay type: cell-based; settings: GM0637 (SV40-transformed human skin fibroblasts); 49 h (FIG. 9)
Text: as §3

[13] = system: tGM24 cells; assay: Visual assessment of cytotoxicity, tGM24 cells; assay type: cell-based, human
Text: as §3

[14] = tGM24 normal diploid cells, 49 h (FIG. 9)

SMILES: CC(C)NCC(O)COCCOc1ccc(Cl)cc1.Cl (racemic) [T-14]
- effectiveness at reducing viability (Alamar Blue), rank among T-8, T-13, T-14 [1]: least efficacy
- effectiveness at reducing viability (Alamar Blue), rank among T-8, T-13, T-14 [2]: least efficacy

SMILES: CCCCOc1ccc(NC2=NC3(CCCCC3)N=C(N)N2)cc1 [T-3]
- mitotic index [3]: highest mitotic index
- percent of nuclei present as clean mitotic spreads (mitotic index) [4]: increased
- percentage of nuclei presenting as mitotic catastrophe [4]: higher percentage
- mitotic index ([4]; selected concentrations (1-10 μM), twice the concentration used for A375, eighteen hours, among T-1 to T-9 (FIG. 3)): highest mitotic index
- rounded up cells in mitosis (visual assessment) [5]: accumulate
- rounded up cells in mitosis (visual assessment) [6]: accumulate
- colony formation (clonogenic cytotoxicity) [7]: decreased colony formation
- colony formation (clonogenic cytotoxicity) [8]: decreased colony formation

SMILES: Cl.OC(CNC1CCCC1)COCCOc1ccc(Br)cc1 (racemic) [T-8]
- effectiveness at reducing viability (Alamar Blue), rank among T-8, T-13, T-14 [1]: most effective
- effectiveness at reducing viability (Alamar Blue), rank among T-8, T-13, T-14 [2]: most effective
- cytotoxicity (Alamar Blue), sensitivity compared across cell lines ([2]; 32 h (FIG. 10)): most effective
- cytotoxicity (Alamar Blue), sensitivity compared across cell lines [9]: moderate sensitivity
- cytotoxicity (Alamar Blue), sensitivity compared across cell lines [10]: moderate sensitivity
- cytotoxicity (Alamar Blue), sensitivity compared across cell lines [11]: relatively resistant
- percent of nuclei present as clean mitotic spreads (mitotic index) [4]: decreased
- percentage of nuclei presenting as mitotic catastrophe [4]: higher percentage
- accumulation of mitotic cells and apoptotic cells (visual assessment) ([5]; HeLa (paclitaxel sensitive human cervical carcinoma), 49 h (FIG. 9)): accumulated
- accumulation of mitotic cells and apoptotic cells (visual assessment) ([6]; SK-MEL-28 (paclitaxel resistant human melanoma), 49 h (FIG. 9)): accumulated
- accumulation of mitotic cells and apoptotic cells (visual assessment) [12]: accumulated
- selectivity for carcinoma cells and transformed cells compared to normal diploid cells ([13]; SK-MEL-28, HeLa, GM0637 vs tGM24, visual assessment (FIG. 9)): selectivity of T-8 for carcinoma cells and transformed cells
- accumulation of mitotic cells and apoptotic cells (visual assessment) ([13]; tGM24 (telomerase immortalized human diploid skin fibroblasts), 49 h (FIG. 9)): not in tGM24
- increase in cell number (visual assessment) ([13]; tGM24, 49 h (FIG. 9)): less apparent
- cell death of normal diploid cells (visual assessment) [13, 14]: not observed
- growth of normal diploid cells (visual assessment) [13, 14]: appeared to be inhibited
- colony formation (clonogenic cytotoxicity) [7]: decreased colony formation
- colony formation (clonogenic cytotoxicity) [8]: decreased colony formation

SMILES: CCCCOc1ccc(NC2=NC3(CCCC3)N=C(N)N2)cc1 [T-10]
- rounded up cells in mitosis (visual assessment) [5]: at slightly higher concentrations
- rounded up cells in mitosis (visual assessment) [6]: at slightly higher concentrations
- colony formation (clonogenic cytotoxicity) [7]: decreased colony formation
- colony formation (clonogenic cytotoxicity) [8]: decreased colony formation

SMILES: COc1ccc(NC2=NC3(CCCC3)N=C(N)N2)cc1 [T-12]
- rounded up cells in mitosis (visual assessment) [5]: less effect
- rounded up cells in mitosis (visual assessment) [6]: less effect

SMILES: COc1cccc(NC2=NC3(CCCCC3)N=C(N)N2)c1 [T-11]
- rounded up cells in mitosis (visual assessment) [5]: less effect
- rounded up cells in mitosis (visual assessment) [6]: less effect
- colony formation (clonogenic cytotoxicity) [7]: decreased colony formation
- relative effectiveness in decreasing colony formation ([7]; Hela cells, among T-3, T-8, T-10, T-11 (FIG. 6A)): least effective

SMILES: CCc1ccc(OCCOCC(O)CNC2CCCC2)cc1.Cl (racemic) [T-13]
- effectiveness at reducing viability (Alamar Blue), rank among T-8, T-13, T-14 [1]: followed by T-13
- effectiveness at reducing viability (Alamar Blue), rank among T-8, T-13, T-14 [2]: followed by T-13
